Experimental data: patent publication US20080051597A1, “Process for Producing 2-Methyladamantan-2-Yl (Meth)Acrylate and 2-Methyladamantan-2-Yl (Meth)Acrylate” (Mitsubishi Chemical Corporation, priority 2004, published 2008)

Assay: Solubility of methyleneadamantane in organic compound
Format: physicochemical
Settings: supernatant analysed by gas chromatography
Method: To a predetermined amount of an organic solvent was added 2-methyleneadamantane in such an amount that it remains in the solvent after dissolution. After stirring the mixture while keeping the temperature at 0° C., the resulting mixture was allowed to stand. A supernatant was collected therefrom and its composition was analyzed by gas chromatography.
The solubility of 2-methyleneadamantane and the amount of 2-methyleneadamantane in the reaction product were measured by gas chromatography analysis described below. • Gas chromatography analyzer: “GC-14B”, product of Shimadzu Corporation • Column: “TC-1”, product of Tokyo Chemical Industry (inner diameter: 0.25 mm, thickness of filler: 0.25 μm, length: 60 m) • Feed port temperature: 150° C. • Detector: FID • Detector temperature: 280° C. • Conditions of column oven: The column oven was retained at 100° C. for 3 minutes, heated to 180° C. at 10° C./min, retained at 180° C. for 5 minutes, heated to 280° C. at 10° C./min, and then retained at 280° C. for 5 minutes.

solubility of methyleneadamantane in 100 g of n-undecane at 0° C.: 101 g
SMILES: C=C1C2CC3CC(C2)CC1C3 [methyleneadamantane, 2-methyleneadamantane]
